From patent US20130303509A1, “NAMPT INHIBITORS” (AbbVie Inc., priority 2012, published 2013) come the findings set out here.

As a reminder, the IC50 is the concentration that gives 50% inhibition. Read a high IC50 as lower potency.

This assay concerns PC3 cells. Kind of assay: NAMPT Cell Proliferation Assay. As to conditions: Homo sapiens, PC-3, 120 h, 5 days incubation, cell viability by Cell Titer Glo. It counts as cell-based. The gist of the method: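 Five-day CellTiter-Glo viability readout in PC3 cells grown in RPMI/10% heat-inactivated FBS. Compounds added after overnight attachment as a 10-fold dilution series, […]. Percent inhibition fitted to sigmoidal dose-response to derive IC50.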
On the technique in general: In ATP-based viability assays light output follows the ATP content of the culture.
`Cc1cc(C)cc(C(=O)N2CCC(c3ccc(NC(=O)C4CN(c5cccnn5)C4)cc3)CC2)c1` [Example 361, N-{4-[1-(3,5-dimethylbenzoyl)piperidin-4-yl]phenyl}-1-(pyridazin-3-yl)azetidine-3-carboxamide] yielded an IC50 of 2.77 nM.
The result for `O=C(Nc1ccc(C2CCN(C(=O)c3ccc(Cl)cc3Cl)CC2)cc1)C1CN(c2cccnn2)C1` [Example 362, N-{4-[1-(2,4-dichlorobenzoyl)piperidin-4-yl]phenyl}-1-(pyridazin-3-yl)azetidine-3-carboxamide] reads 2.61 nM; that for `O=C(Nc1ccc(C2CCN(C(=O)c3cc(Cl)ccc3Cl)CC2)cc1)C1CN(c2cccnn2)C1` [Example 363, N-{4-[1-(2,5-dichlorobenzoyl)piperidin-4-yl]phenyl}-1-(pyridazin-3-yl)azetidine-3-carboxamide], 5.6 nM.
Then `O=C(Nc1ccc(C2CCN(C(=O)c3ccc(Cl)c(Cl)c3)CC2)cc1)C1CN(c2cccnn2)C1` [Example 364, N-{4-[1-(3,4-dichlorobenzoyl)piperidin-4-yl]phenyl}-1-(pyridazin-3-yl)azetidine-3-carboxamide], with 8.63 nM; and `O=C(Nc1ccc(C2CCN(C(=O)c3cc(Cl)cc(Cl)c3)CC2)cc1)C1CN(c2cccnn2)C1` [Example 365, N-{4-[1-(3,5-dichlorobenzoyl)piperidin-4-yl]phenyl}-1-(pyridazin-3-yl)azetidine-3-carboxamide], with 7.84 nM; and `O=C(Nc1ccc(C2CCN(C(=O)Cc3ccccc3F)CC2)cc1)C1CN(c2cccnn2)C1` [Example 366, N-(4-{1-[(2-fluorophenyl)acetyl]piperidin-4-yl}phenyl)-1-(pyridazin-3-yl)azetidine-3-carboxamide], with 6.57 nM.
The result for `O=C(Nc1ccc(C2CCN(C(=O)Cc3cccc(F)c3)CC2)cc1)C1CN(c2cccnn2)C1` [Example 367, N-(4-{1-[(3-fluorophenyl)acetyl]piperidin-4-yl}phenyl)-1-(pyridazin-3-yl)azetidine-3-carboxamide] reads 6.38 nM; that for `O=C(Nc1ccc(C2CCN(C(=O)Cc3ccc(F)cc3)CC2)cc1)C1CN(c2cccnn2)C1` [Example 368, N-(4-{1-[(4-fluorophenyl)acetyl]piperidin-4-yl}phenyl)-1-(pyridazin-3-yl)azetidine-3-carboxamide], 7.7 nM; that for `O=C(Nc1ccc(C2CCN(C(=O)Cc3ccccc3Cl)CC2)cc1)C1CN(c2cccnn2)C1` [Example 369, N-(4-{1-[(2-chlorophenyl)acetyl]piperidin-4-yl}phenyl)-1-(pyridazin-3-yl)azetidine-3-carboxamide], 2.14 nM.
For the compound `O=C(Nc1ccc(C2CCN(C(=O)Cc3ccc(Cl)cc3)CC2)cc1)C1CN(c2cccnn2)C1` [Example 370, N-(4-{1-[(4-chlorophenyl)acetyl]piperidin-4-yl}phenyl)-1-(pyridazin-3-yl)azetidine-3-carboxamide], 8.79 nM corresponded to half-maximal inhibition (IC50).
As to `O=C(Nc1ccc(C2CCN(C(=O)Cc3ccc(C(F)(F)F)cc3)CC2)cc1)C1CN(c2cccnn2)C1` [Example 371, 1-(pyridazin-3-yl)-N-[4-(1-{[4-(trifluoromethyl)phenyl]acetyl}piperidin-4-yl)phenyl]azetidine-3-carboxamide], the IC50 turned out to be 8.94 nM.
Then `Cc1cc(C)cc(CC(=O)N2CCC(c3ccc(NC(=O)C4CN(c5cccnn5)C4)cc3)CC2)c1` [Example 372, N-(4-{1-[(3,5-dimethylphenyl)acetyl]piperidin-4-yl}phenyl)-1-(pyridazin-3-yl)azetidine-3-carboxamide], with 7.06 nM; and `O=C(Nc1ccc(C2CCN(C(=O)Cc3cc(F)ccc3F)CC2)cc1)C1CN(c2cccnn2)C1` [Example 373, N-(4-{1-[(2,5-difluorophenyl)acetyl]piperidin-4-yl}phenyl)-1-(pyridazin-3-yl)azetidine-3-carboxamide], with 5.95 nM.
The result for `O=C(Nc1ccc(C2CCN(C(=O)Cc3ccc(Cl)c(Cl)c3)CC2)cc1)C1CN(c2cccnn2)C1` [Example 374, N-(4-{1-[(3,4-dichlorophenyl)acetyl]piperidin-4-yl}phenyl)-1-(pyridazin-3-yl)azetidine-3-carboxamide] reads 6.32 nM.
Then `O=C(Nc1ccc(C2CCN(C(=O)c3ccoc3)CC2)cc1)C1CN(c2cccnn2)C1` [Example 375, N-{4-[1-(furan-3-ylcarbonyl)piperidin-4-yl]phenyl}-1-(pyridazin-3-yl)azetidine-3-carboxamide], with 0.87 nM; and `O=C(Nc1ccc(C2CCN(C(=O)c3cccs3)CC2)cc1)C1CN(c2cccnn2)C1` [Example 376, 1-(pyridazin-3-yl)-N-{4-[1-(thiophen-2-ylcarbonyl)piperidin-4-yl]phenyl}azetidine-3-carboxamide], with 0.62 nM.
The compound `Cc1ccc(C(=O)N2CCC(c3ccc(NC(=O)C4CN(c5cccnn5)C4)cc3)CC2)s1` [Example 377, N-(4-{1-[(5-methylthiophen-2-yl)carbonyl]piperidin-4-yl}phenyl)-1-(pyridazin-3-yl)azetidine-3-carboxamide] returned an IC50 of 2.13 nM.
Then `Cc1cnc(C(=O)N2CCC(c3ccc(NC(=O)C4CN(c5cccnn5)C4)cc3)CC2)cn1` [Example 378, N-(4-{1-[(5-methylpyrazin-2-yl)carbonyl]piperidin-4-yl}phenyl)-1-(pyridazin-3-yl)azetidine-3-carboxamide], with 7.09 nM; and `CC1(C(=O)N2CCC(c3ccc(NC(=O)C4CN(c5cccnn5)C4)cc3)CC2)CC1` [Example 379, N-(4-{1-[(1-methylcyclopropyl)carbonyl]piperidin-4-yl}phenyl)-1-(pyridazin-3-yl)azetidine-3-carboxamide], with 1.07 nM; and `CCOCCC(=O)N1CCC(c2ccc(NC(=O)C3CN(c4cccnn4)C3)cc2)CC1` [Example 380, N-{4-[1-(3-ethoxypropanoyl)piperidin-4-yl]phenyl}-1-(pyridazin-3-yl)azetidine-3-carboxamide], with 7.57 nM.
The result for `O=C(Nc1ccc(C2CCN(C(=O)C3(c4ccccc4)CC3)CC2)cc1)C1CN(c2cccnn2)C1` [Example 381, N-(4-{1-[(1-phenylcyclopropyl)carbonyl]piperidin-4-yl}phenyl)-1-(pyridazin-3-yl)azetidine-3-carboxamide] reads 1.87 nM; that for `O=C(Nc1ccc(C2CCN(C(=O)CSc3ncccn3)CC2)cc1)C1CN(c2cccnn2)C1` [Example 382, 1-(pyridazin-3-yl)-N-(4-{1-[(pyrimidin-2-ylsulfanyl)acetyl]piperidin-4-yl}phenyl)azetidine-3-carboxamide], 8.99 nM.
The result for `CC(=O)N1CCC(C(=O)N2CCC(c3ccc(NC(=O)C4CN(c5cccnn5)C4)cc3)CC2)CC1` [Example 383, N-(4-{1-[(1-acetylpiperidin-4-yl)carbonyl]piperidin-4-yl}phenyl)-1-(pyridazin-3-yl)azetidine-3-carboxamide] reads 62.7 nM.
`O=C(Nc1ccc(C2CCN(C(=O)Cc3cc(F)cc(F)c3)CC2)cc1)C1CN(c2cccnn2)C1` [Example 384, N-(4-{1-[(3,5-difluorophenyl)acetyl]piperidin-4-yl}phenyl)-1-(pyridazin-3-yl)azetidine-3-carboxamide] displayed an IC50 of 8.27 nM.
